Data: patent US5652366A, “DI (1R)-(-)camphosulfonic acid) salt, preparation thereof and use thereof” (Rhone-Poulenc Rorer Pharmaceuticals Inc., priority 1995, dated 1997)
pEC50: −log10 of the molar value. Read-outs that look alike come from different tables or passages of the source. Each block holds one molecule with its values, some of them ahead of it.

Key:
[1] = test system: myocardial infarct in Sprague-Dawley rats; test: Cardioprotective activity in rat: myocardial infarct size after coronary occlusion/reperfusion; type: in vivo; conditions: control 63 ± 5, preconditioned 15 ± 8
Protocol: Adult Sprague-Dawley rats are anesthetized with Inactin (100 mg/kg i.p.). The trachea is intubated and positive pressure ventilation is provided via a small animal respirator. Catheters are placed in the femoral vein and artery for administration of compounds of the present invention to be tested, and measurement of blood pressure, respectively. An incision is made on the left side of the thorax over the pectoral muscles, and the muscles are retracted to expose the fourth intercostal space. The chest cavity is opened and the heart is exposed. A length of 4-0 proline suture is placed through the ventricular wall near the left main coronary artery and is used to interrupt blood flow through the cornary artery by tightening a slip-knot. A pulsed-Doppler flow probe (a device which measures blood flow) is placed on the surface of the heart to confirm that the coronary artery has been porperly identified. […]
For preconditioning the heart, the coronary artery is occluded (flow is interrupted) for a period of two minutes. […] Infarct size is determined by slicing the heart from apex to base into four to five slices 1-2 mm thick. […] The tissue slices are placed in a video image analysis system and infarct size is determined by planimetry. The effect of the compound of the present invention tested on myocardial infarct size is assessed and used to quantirate the extent of cardioprotective activity. […]

[2] = test system: rat adipocytes; test: In vitro lipolysis assay in rat adipocytes (glycerol production); type: cell-based; conditions: Rattus norvegicus, Adipocyte; for EC50: read-out: EC50 (50% inhibition of glycerol production), unit nM in cell
Protocol: Adipose tissue is removed from anesthetized rats and rinsed twice in incubation medium (2.09 g sodium bicarbonate and 0.04 g EDTA, disodium salt, in 1 L Krebs buffer). Each rat (300-350 g) yields approximately 4 ml of adipose tissue. The adipose tissue (35 ml) is cut into small pieces with scissors and washed with incubation medium (50 ml). The mixture is poured into the barrel of a 50 ml syringe to which is attached a short piece of clamped tubing instead of a needle. The aqueous phase is allowed to drain. A second wash with incubation medium is passed through the syringe. The tissue is added to 50 ml of collagenase solution (collagenase(90 mg), bovine serum albumin (BSA) (500 mg), and 0.1 M calcium chloride solution (1 ml), in incubation medium (50 ml)) in a 1 L bottle. The mixture is shaken in an environmental at 37° C. for about 60 minutes under an atmosphere of 95% oxygen/5% carbon dioxide to effect digestion of the tissue. The dispersed cells are poured through 2 layers of cheese cloth into a 100 ml plastic beaker. The undigested clumps in the cloth are rinsed once with incubation medium (20 ml). The cells in the beaker are centrifuged in 2 plastic tubes for 30 seconds at room temperature at 300 rpm. The aqueous phase is aspirated from beneath the loosely packed layer of floating fat cells and discarded. The adipocytes are gently poured into a 250 ml plastic beaker containing 100 ml of rinse solution (1 g BSA per 100 ml incubation medium). After gentle stirring the centrifugation step is repeated. Another wash with rinse solution follows. The cells are pooled and their volume is estimated with a graduated cylinder. The adipocytes are diluted in twice their volume of assay buffer (incubation medium (120 ml), BSA (1.2 g), pyruvic acid (13 mg)).
The assay is performed in 20 ml plastic scintillation vials and the total assay volume is 4.2 ml. Assay buffer (2.5 ml), diluted adipocytes (1.5 ml), and a solution of the compound to be tested (12.3 μL) adenosine agonist (12.3 μl; varying concentration) is incubated in the environmental shaker for 15 minutes, then the reaction is started with norepinephrine solution (41.2 μL) (10 nM, in a carrier solution containing water (100 ml), BSA (4 mg), and 0.1 M EDTA (20 I. LL))and adenosine deaminase (1 μg/ml, 41.2 μl). After sixty minutes in the shaker the reaction is terminated by putting the vials on ice. […] The hard lipid layer is removed by aspiration and the aqueous layer is assayed for glycerol (400 μl of sample). The positive control is done in the absence of any adenosine agonist, substituting water in place of the solution to be tested.

[3] = test system: A1 and A2 receptors; conditions: reported developments; cited from earlier work
[4] = test system: A2 receptor; conditions: relative to NECA; cited from earlier work
[5] = test system: swine coronary arteries; test: In vitro vasorelaxation in isolated swine coronary arteries (PGF2α-contracted rings); type: cell-based; conditions: Sus scrofa; 50% reduction in tension, 3 μM PGF2α; Table II; read-out: Vasorelaxation in Swine Coronary Artery/IC50
Protocol: Swine coronary arteries were obtained from a local slaughter house, dissected carefully and cleaned of fat, blood and adhering tissue. Rings approximately 2-3 mm wide were cut and transferred to water-jacketed tissue baths (10 ml) filled with warm (37° C.), oxygenated (O2 /CO2 :95%/5%) Krebs-Henseleit buffer and mounted on L-shaped hooks between stainless steel rods and a force transducer. […] Rings were equilibrated for 90 minutes with frequent buffer changes at a resting tension of 5 g In order to assure optimal tension development, arterial rings were primed twice with 36 mM KCl and once with 10 μm. PGF2α, before being exposed to 3 μM PGF2α. […] Tension achieved with 3 μM PGF2α was considered .equivalent to 100%; all other values were expressed as a percentage of that maximum.

[6] = test system: spontaneously hypertensive rat (SHR); test: Oral antihypertensive activity in conscious spontaneously hypertensive rat (SHR); type: in vivo; conditions: for SHR MAP/%: D = decrease; for SHR HR/%: I = increase
Protocol: The oral antihypertensive activity of compounds of the invention were examined in conscious spontaneously hypertensive rats. The rats were anesthetized with sodium pentabarbatol (50 mg/kg i.p.). A telemetry transducer was implanted into the rats abdomen via midline incision. The cannula of the transducer was inserted into the abdomenal aorta to allow direct measurement of arterial pressure in the conscious SHR. The transducer was secured to the abdomenal wall. After recovery from surgery (minimum of seven days), the SHR were placed on a receiver plate and the transducer/transmitter was activated. Systolic, diastolic and mean arterial pressure and heart rate were recorded for 1.5 hours in the unrestrained conscious rat to establish a stable baseline. Each rat then received a single dose of the compound of the invention to be tested, or vehicle, and changes in arterial pressure and heart rate were monitored for 20 hours and recorded.

[7] = target: T1, A1 adenosine receptor (Rattus norvegicus, UniProt P25099); test: biochemical; conditions: rat whole brain membranes, 3H-CHA; Table II; read-out: Adenosine Receptor Binding Activity/IC50 (nM) A1
T1 sequence (P25099 1-326): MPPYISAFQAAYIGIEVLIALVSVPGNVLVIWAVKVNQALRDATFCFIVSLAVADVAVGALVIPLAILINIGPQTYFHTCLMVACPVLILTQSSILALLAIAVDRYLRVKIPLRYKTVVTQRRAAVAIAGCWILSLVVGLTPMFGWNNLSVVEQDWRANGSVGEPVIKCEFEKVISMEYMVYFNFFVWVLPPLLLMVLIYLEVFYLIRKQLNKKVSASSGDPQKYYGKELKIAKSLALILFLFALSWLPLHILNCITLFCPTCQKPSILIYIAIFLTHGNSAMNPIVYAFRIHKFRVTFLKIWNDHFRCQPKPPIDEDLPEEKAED
Protocol: Non-specific binding was assessed in the presence of 1 mM theophylline.
The assays were run in glass test tubes in duplicate at 25° C. Once the membranes were added, the tubes were vortexed and incubated at 25° C. for 60 minutes (A1 assay) or 90 minutes (A2 assay) on a rotary shaker. The assay tubes were vortexed halfway through the incubation and again near the end. The assays were terminated by rapid filtration through 2.4 cm GF/B filters using a Brandel Cell Harvestor. The test tubes were washed three times with cold 50 mM tris-HCl (pH 7.7 or 7.4), with filtration being completed within 15 seconds. The damp filter circles were placed in glass scintillation vials filled with 10 ml of Aquasol II (New England Nuclear). The vials were allowed to shake overnight on a rotary shaker and were placed into a liquid scintillation analyzer for two minute counts. IC50 values for receptor binding, i.e. the concentration at which a compound of the invention displaced the radiolabeled standard, were obtained using a curve-fitting computer program (RS/1, Bolt, Beranek and Newman, Boston, Mass.).

[8] = target: A2 adenosine receptor (Rattus norvegicus, UniProt P30543); test: biochemical; conditions: rat brain striatum membranes, 3H-CGS 21680; Table II; read-out: Adenosine Receptor Binding Activity/IC50 (nM) A2
[9] = test system: normotensive anesthetized rat; test: In vivo mean arterial pressure and heart rate in normotensive anesthetized rat; conditions: iv
Protocol: Normotensive rats were anesthetized with sodium pentobarbital (50 mg/kg, j.p.) and placed on a heated surgical table. Cannulas were inserted into the femoral artery and […] to allow the measurement of arterial pressure and to facilitate the intravenous administration of test compounds. The animals was allowed to equilibrate for 10 minutes after surgery. Mean arterial pressure was continuously measured and recorded and heart rate was monitored using the arterial pressure pulse to trigger a cardiotachometer. After baseline parameters were established and recorded, increasing doses (1, 3, 10, 30, 100, 300 and 1000 μg/kg) of the compound of the invention to be tested were administered intravenously. Maximal changes in the cardiovascular parameters were observed after each dose of the adenosine agonist. Only one compound was administered per rat.

Sequence of A2 adenosine receptor (P30543 whole entry): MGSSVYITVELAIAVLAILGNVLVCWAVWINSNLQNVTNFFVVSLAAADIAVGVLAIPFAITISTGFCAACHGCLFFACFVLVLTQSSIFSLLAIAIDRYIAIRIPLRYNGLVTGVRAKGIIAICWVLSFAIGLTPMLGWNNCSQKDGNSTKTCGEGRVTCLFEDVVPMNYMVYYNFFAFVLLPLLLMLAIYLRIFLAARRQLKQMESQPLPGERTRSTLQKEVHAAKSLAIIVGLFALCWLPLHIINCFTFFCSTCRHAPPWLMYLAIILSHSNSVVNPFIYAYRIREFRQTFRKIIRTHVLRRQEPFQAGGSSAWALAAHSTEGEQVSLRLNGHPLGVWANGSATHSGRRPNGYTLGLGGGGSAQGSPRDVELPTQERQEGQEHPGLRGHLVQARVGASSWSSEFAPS

- EC50 [2]: 5.4 nM
SMILES: CCNC(=O)[C@H]1C[C@@H](n2cnc3c(N[C@H](CC)Cc4sccc4Cl)ccnc32)[C@H](O)[C@@H]1O (single isomer, unassigned) [Example 39, [1S-[1α,2β,3β,4α(S*)]]-4-[7-[[2-(3-chloro-2-thienyl)-1-ethylethyl]amino]-3 H-imidazo[4,5-b]pyridin-3-yl]-N-ethyl-2,3-dihydroxycyclopentane-carboxamide]
- % Risk Area Infarcted ([1]; Compound High: i.v. bolus 10 μg/kg, then 1 μg/kg/minute from 30 minutes prior to occlusion to 2 hours after reperfusion): 18 ± 5%
- % Risk Area Infarcted ([1]; Compound Low: i.v. bolus 1 μg/kg, then 0.1 μg/kg/minute for 30 minutes prior to occlusion): 23 ± 9%

SMILES: Nc1nc(Nc2ccccc2)nc2c1ncn2[C@@H]1O[C@H](CO)[C@@H](O)[C@H]1O [CV-1808]
- A2/A1 ratio [3]: 0.19
- fold less potent than NECA in affinity for the A2 receptor [4]: 10 fold

- pEC50 [5]: 7.68
- EC50 [2]: 0.76 nM
- IC50 [7]: 2.69 nM
- IC50 [8]: 12.9 nM
SMILES: CCNC(=O)[C@H]1C[C@@H](n2cnc3c(N[C@H](C)Cc4ccc(Cl)s4)ncnc32)[C@H](O)[C@@H]1O [Example 6, (-)-[2S-[2α,3α-dihydroxy-4-β-[N6-[2-(5-chloro-2-thienyl)-(1R)-1-methylethyl]amino]-9-adenyl]cyclopentane]-1-β-N-ethylcarboxamide]
- SHR MAP/% ([6]; 1 mg/kg): 18%
- SHR HR/% ([6]; 1 mg/kg): 7%

- pEC50 [5]: 7.09
- EC50 [2]: 89 nM
- IC50 [7]: 87.1 nM
- IC50 [8]: 63.1 nM
SMILES: CCNC(=O)[C@H]1C[C@@H](n2cnc3c(NCCc4cccs4)ncnc32)[C@H](O)[C@@H]1O [Example 26, (-)-N^6-[(thiophen-2"-yl)ethan-2-yl]carbocyclic adenosine-5'-N-ethyl carboxamide]
- SHR MAP/% ([6]; 2.5 mg/kg): 41%
- SHR HR/% ([6]; 2.5 mg/kg): 3%
- inhibition at 1 µM ([2]; 1 μM, versus positive control, read-out: % Inhibition of glycerol production): 96%
- ED25 ([9]; dose lowering heart rate by 25%, read-out: Blood Press/Heart Rate Anesthetized Rat HR/ED25): > 30 µg/kg
- ED25 ([9]; dose lowering mean arterial pressure by 25%, read-out: Blood Press/Heart Rate Anesthetized Rat MAP/ED25): 4 µg/kg
